Experimental data taken from patent US9650325B2, “Compound, preparing method thereof, and use thereof as inhibitors of histone demethylase” (SNU R&DB FOUNDATION, priority 2013, dated 2017).

Experiments:
KDM6 = assay: Immunoblotting of histone from tripartin-treated HeLa cell line: KDM6 inhibitory activity (H3K27me3); format: cell-based, human; settings: 10 μM, 24 hours, vs DMSO control
Description: (§1) HeLa cell line, which is a uterine cervical cancer cell line, was treated with tripartin and then histone was extracted from the tripartin-treated HeLa cell. A histone methylation antibody which may verify activity of the KDM was analyzed by immunoblotting to measure the KDM inhibiting effect.
(§2) 0.1% (w/v) DMSO (control group), or 0.1% (w/v) DMSO and 10 μM tripartin (experimental group) was added to the HeLa cell line, which was then incubated at 37° C. for 24 hours. Subsequently, proteins were extracted from the HeLa cell line, and the extracted proteins underwent electrophoresis with 15% SDS-polyacrylamide. Anti-histone H3 antibody (MILLIPORE), anti-H3K9me3 antibody (MILLIPORE), anti-H3K9me2 antibody (MILLIPORE), anti-H3K3me1 antibody (MILLIPORE), anti-H3K27me3 antibody (MILLIPORE), anti-H3K4me3 antibody (MILLIPORE), anti-H3K36me3 antibody (MILLIPORE), anti-H3K79me2 antibody (MILLIPORE), and anti-H3ace antibody (MILLIPORE) were used to perform immunoblotting. […] Herein, H”, “K”, “me”, and “ace” refer to histone, lysine (K), methylation, and acetylation, respectively. The number next to “H” refers to a histone number, the number next to “K” refers to the histone amino acid number, and the number next to “me” refers to the number of methylation. For example, “H3K9me3” refers to histone H3 with a tri-methylated lysine in the ninth position. […]

KDM2/7 = assay: Immunoblotting of histone from tripartin-treated HeLa cell line: KDM2/7 inhibitory activity (H3K36me3); format: cell-based, human; settings: 10 μM, 24 hours, vs DMSO control
Description: as §1, §2

KDM4 = assay: Immunoblotting of histone from tripartin-treated HeLa cell line: KDM4 inhibitory activity (H3K9me3); format: cell-based, human; settings: 10 μM, 24 hours
Description: as §1, §2

[1] = Analysis of physicochemical properties of tripartin
KDM5 = assay: Immunoblotting of histone from tripartin-treated HeLa cell line: KDM5 inhibitory activity (H3K4me3); format: cell-based, human; settings: 10 μM, 24 hours, vs DMSO control
Description: as §1, §2

KDM3 = assay: Immunoblotting of histone from tripartin-treated HeLa cell line: KDM3 inhibitory activity (H3K9me2/1); format: cell-based, human; settings: 10 μM, 24 hours, vs DMSO control
Description: as §1
(§3) 0.1% (w/v) DMSO (control group), or 0.1% (w/v) DMSO and 10 μM tripartin (experimental group) was added to the HeLa cell line, which was then incubated at 37° C. for 24 hours. Subsequently, proteins were extracted from the HeLa cell line, and the extracted proteins underwent electrophoresis with 15% SDS-polyacrylamide. Anti-histone H3 antibody (MILLIPORE), anti-H3K9me3 antibody (MILLIPORE), anti-H3K9me2 antibody (MILLIPORE), anti-H3K3me1 antibody (MILLIPORE), anti-H3K27me3 antibody (MILLIPORE), anti-H3K4me3 antibody (MILLIPORE), anti-H3K36me3 antibody (MILLIPORE), anti-H3K79me2 antibody (MILLIPORE), and anti-H3ace antibody (MILLIPORE) were used to perform immunoblotting. […] Herein, H”, “K”, “me”, and “ace” refer to histone, lysine (K), methylation, and acetylation, respectively. The number next to “H” refers to a histone number, the number next to “K” refers to the histone amino acid number, and the number next to “me” refers to the number of methylation. For example, “H3K9me3” refers to histone H3 with a tri-methylated lysine in the ninth position.
(§4) KDM3, KDM4, KDM6, KDM5, and KDM2/7 demethylate H3K9me2/1, H3K9me3, H3K27, H3K4, and H3K36, respectively.

HeLa cell line = assay: Immunoblotting of histone from tripartin-treated HeLa cell line: other histone marks (H3, H3K79me2, H3ace); format: cell-based, human; settings: 10 μM, 37° C., 24 hours, vs DMSO control
Description: as §1, §3, §4

SMILES: O=C1C[C@@](O)(C(Cl)Cl)c2c(O)cc(O)cc21 [tripartin]
- H3K27me3 level (immunoblotting) (KDM6; 37° C.): not increased
- KDM6 inhibitory effect (KDM6): No inhibitory effect
- H3K36me3 level (immunoblotting) (KDM2/7; 37° C.): not increased
- KDM2/7 inhibitory effect (KDM2/7): No inhibitory effect
- H3K9me3 level (immunoblotting) (KDM4; 37° C., vs DMSO control): increased significantly
- KDM4 inhibitory effect (KDM4; in comparison to the DMSO control group): inhibitory effect
- Solubility ([1]; intermediate organic solvent such as methanol and acetone): well dissolved
- Stability of the solid ([1]; room temperature): stable at room temperature
- H3K4me3 level (immunoblotting) (KDM5; 37° C.): not increased
- KDM5 inhibitory effect (KDM5): No inhibitory effect
- H3K9me1 level (immunoblotting) (KDM3; 37° C.): not increased
- H3K9me2 level (immunoblotting) (KDM3; 37° C.): not increased
- KDM3 inhibitory effect (KDM3): No inhibitory effect
- H3K79me2 level (immunoblotting) (HeLa cell line): not increased
- H3ace level (immunoblotting) (HeLa cell line): not increased
- H3 level (immunoblotting) (HeLa cell line): not increased
